# BindingDB's records for doi:10.1016/j.bmcl.2014.07.007 (Astrazeneca, 2014)
# Assays:
# [1] = molecular target: Phosphatidylinositol 4,5-bisphosphate 3-kinase catalytic subunit beta isoform (Homo sapiens, UniProt P42338); assay: Inhibition of human recombinant PI3Kbeta assessed as PIP3 production by AlphaScreen assay
# [2] = molecular target: Phosphatidylinositol 4,5-bisphosphate 3-kinase catalytic subunit alpha isoform (Homo sapiens, UniProt P42336); assay: Inhibition of human recombinant PI3Kalpha assessed as PIP3 production by AlphaScreen assay
# Sequence of Phosphatidylinositol 4,5-bisphosphate 3-kinase catalytic subunit alpha isoform (P42336 whole entry, canonical isoform): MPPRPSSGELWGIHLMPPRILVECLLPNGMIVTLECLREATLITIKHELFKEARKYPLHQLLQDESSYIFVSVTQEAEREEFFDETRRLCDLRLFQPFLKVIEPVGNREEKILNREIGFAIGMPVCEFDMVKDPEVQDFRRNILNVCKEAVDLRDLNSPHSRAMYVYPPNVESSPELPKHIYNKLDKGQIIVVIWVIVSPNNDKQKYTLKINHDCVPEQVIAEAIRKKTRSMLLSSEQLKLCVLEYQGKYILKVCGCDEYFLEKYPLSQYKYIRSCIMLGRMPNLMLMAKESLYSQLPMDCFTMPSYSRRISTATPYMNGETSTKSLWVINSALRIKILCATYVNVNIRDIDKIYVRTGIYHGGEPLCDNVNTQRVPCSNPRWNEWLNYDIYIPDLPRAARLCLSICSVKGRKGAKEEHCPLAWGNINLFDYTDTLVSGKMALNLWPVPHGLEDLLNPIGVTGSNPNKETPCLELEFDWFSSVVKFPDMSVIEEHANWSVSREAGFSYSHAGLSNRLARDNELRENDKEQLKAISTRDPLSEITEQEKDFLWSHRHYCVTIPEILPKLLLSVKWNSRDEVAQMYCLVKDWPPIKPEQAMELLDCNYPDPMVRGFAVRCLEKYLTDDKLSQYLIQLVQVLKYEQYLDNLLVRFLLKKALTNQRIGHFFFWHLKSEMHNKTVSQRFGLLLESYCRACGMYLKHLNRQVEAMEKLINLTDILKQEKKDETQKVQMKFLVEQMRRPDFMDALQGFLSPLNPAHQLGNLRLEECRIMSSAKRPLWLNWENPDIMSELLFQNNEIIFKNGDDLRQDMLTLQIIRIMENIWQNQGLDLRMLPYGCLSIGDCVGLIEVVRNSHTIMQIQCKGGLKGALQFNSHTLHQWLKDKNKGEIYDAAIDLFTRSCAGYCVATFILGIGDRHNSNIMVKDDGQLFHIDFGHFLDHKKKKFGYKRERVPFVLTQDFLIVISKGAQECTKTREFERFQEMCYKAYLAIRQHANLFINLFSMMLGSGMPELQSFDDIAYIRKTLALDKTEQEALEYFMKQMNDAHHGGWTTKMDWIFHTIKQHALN
# Sequence of Phosphatidylinositol 4,5-bisphosphate 3-kinase catalytic subunit beta isoform (P42338 whole entry, canonical isoform): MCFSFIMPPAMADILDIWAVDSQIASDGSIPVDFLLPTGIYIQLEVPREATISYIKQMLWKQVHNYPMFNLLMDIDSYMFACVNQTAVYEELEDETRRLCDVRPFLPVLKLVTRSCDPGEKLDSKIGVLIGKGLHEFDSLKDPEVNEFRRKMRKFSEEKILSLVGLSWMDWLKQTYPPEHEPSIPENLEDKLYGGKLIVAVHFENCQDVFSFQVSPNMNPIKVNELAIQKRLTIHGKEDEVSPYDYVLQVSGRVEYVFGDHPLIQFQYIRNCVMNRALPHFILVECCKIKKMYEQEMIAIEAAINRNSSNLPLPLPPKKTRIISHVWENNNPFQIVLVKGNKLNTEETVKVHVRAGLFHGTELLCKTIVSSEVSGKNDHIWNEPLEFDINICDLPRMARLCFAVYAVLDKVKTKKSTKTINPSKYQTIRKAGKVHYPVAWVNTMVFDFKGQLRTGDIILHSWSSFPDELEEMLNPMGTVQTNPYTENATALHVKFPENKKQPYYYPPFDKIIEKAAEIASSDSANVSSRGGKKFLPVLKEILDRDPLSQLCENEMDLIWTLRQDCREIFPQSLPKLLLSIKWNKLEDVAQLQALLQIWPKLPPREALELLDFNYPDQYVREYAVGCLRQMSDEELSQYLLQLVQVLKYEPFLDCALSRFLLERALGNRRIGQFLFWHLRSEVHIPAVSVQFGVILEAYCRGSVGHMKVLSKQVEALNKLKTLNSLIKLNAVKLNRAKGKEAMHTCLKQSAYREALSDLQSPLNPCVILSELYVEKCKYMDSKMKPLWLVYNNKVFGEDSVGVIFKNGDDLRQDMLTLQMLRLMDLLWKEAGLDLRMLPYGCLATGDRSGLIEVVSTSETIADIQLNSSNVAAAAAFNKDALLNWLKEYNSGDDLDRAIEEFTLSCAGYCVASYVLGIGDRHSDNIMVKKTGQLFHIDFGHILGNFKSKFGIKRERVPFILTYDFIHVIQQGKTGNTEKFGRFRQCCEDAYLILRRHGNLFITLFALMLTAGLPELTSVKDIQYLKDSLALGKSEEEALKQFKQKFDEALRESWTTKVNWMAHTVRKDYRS
SMILES,IC50 [1] [nM],IC50 [2] [nM]
Cc1cc(C(C)Nc2cccc(C(=O)O)c2)c2nc(N3CCOCC3)cc(=O)n2c1 (centres undefined),4800,12100
Cc1cc(OC(C)c2cc(C(=O)N(C)CCO)cn3c(=O)cc(N4CCOCC4)nc23)ccc1F (centres undefined),200,–
COc1ccccc1OC(C)c1cc(C(=O)N(C)CCO)cn2c(=O)cc(N3CCOCC3)nc12 (centres undefined),400,2500
CC(Oc1cccc(C#N)c1)c1cc(C(=O)N(C)CCO)cn2c(=O)cc(N3CCOCC3)nc12 (centres undefined),1700,8200
CC(Oc1ccccc1F)c1cc(C(=O)N(C)CCO)cn2c(=O)cc(N3CCOCC3)nc12 (centres undefined),660,3400
Cc1cccc(OC(C)c2cc(C(=O)N(C)CCO)cn3c(=O)cc(N4CCOCC4)nc23)c1 (centres undefined),180,9400
Cc1ccccc1OC(C)c1cc(C(=O)N(C)CCO)cn2c(=O)cc(N3CCOCC3)nc12 (centres undefined),110,1300
CC(Oc1ccccc1)c1cc(C(=O)N(C)CCO)cn2c(=O)cc(N3CCOCC3)nc12 (centres undefined),190,10100
CC(Nc1ccccc1)c1cc(C(=O)N(C)CC(=O)O)cn2c(=O)cc(N3CCOCC3)nc12 (centres undefined),340,3800
CC(Nc1ccccc1)c1cc(C(=O)N2CCOCC2)cn2c(=O)cc(N3CCOCC3)nc12 (centres undefined),140,6900

# These reach a lower IC50 [1]. Values come first.
IC50 [1] [nM],IC50 [2] [nM],SMILES
76,4800,CC(Nc1ccccc1)c1cc(C(=O)NCCN2CCNCC2)cn2c(=O)cc(N3CCOCC3)nc12 (centres undefined)
68,2500,CC(Nc1ccccc1)c1cc(C(=O)N(C)C)cn2c(=O)cc(N3CCOCC3)nc12 (centres undefined)
59,610,CC(Nc1ccccc1)c1cc(C(=O)O)cn2c(=O)cc(N3CCOCC3)nc12 (centres undefined)
58,2200,CC(Nc1ccccc1)c1cc(C(=O)N(C)CCO)cn2c(=O)cc(N3CCOCC3)nc12 (centres undefined)
51,1410,Cc1cc(C(C)Nc2ccccc2-c2nnn[nH]2)c2nc(N3CCOCC3)cc(=O)n2c1 (centres undefined)
47,4500,COc1cccc(OC(C)c2cc(C(=O)N(C)CCO)cn3c(=O)cc(N4CCOCC4)nc23)c1 (centres undefined)
46,600,Cc1c(F)cccc1OC(C)c1cc(C(=O)N(C)CCO)cn2c(=O)cc(N3CCOCC3)nc12 (centres undefined)
35,2300,CC(Nc1ccccc1)c1cc(C(=O)NCCN(C)C)cn2c(=O)cc(N3CCOCC3)nc12 (centres undefined)
31,1460,Cc1cc(C(C)Nc2cc(Cl)ccc2C(=O)O)c2nc(N3CCOCC3)cc(=O)n2c1 (centres undefined)
30,330,Cc1cc(C(C)Nc2ccccc2S(=O)(=O)O)c2nc(N3CCOCC3)cc(=O)n2c1 (centres undefined)
